Target: T1, BTK protein (Homo sapiens, UniProt Q06187)
T1 construct: endogenous in cells; host or cells: TMD-8 cells
Test: Measurement of BTK protein degradation ability in TMD-8 cells (Western blotting)
Assay type: cell-based
Details: harvested after 24 hours; for BTK degradation (%) 1 nM: compound 1 nM; for BTK degradation (%) 10 nM: compound 10 nM; for BTK degradation (%) 100 nM: compound 100 nM
Outline: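 TMD-8 cells (1×10^6/mL) were treated for 24 h with compound at 0.1, 1, 10 μM or 0.0001–0.1 μM, with DMSO as vehicle control. RIPA lysates were normalized by BCA assay. BTK was detected by Western blot with anti-BTK, using GAPDH or β-actin as loading controls, and imaged on LI-COR Odyssey.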

T1 sequence (Q06187 whole entry): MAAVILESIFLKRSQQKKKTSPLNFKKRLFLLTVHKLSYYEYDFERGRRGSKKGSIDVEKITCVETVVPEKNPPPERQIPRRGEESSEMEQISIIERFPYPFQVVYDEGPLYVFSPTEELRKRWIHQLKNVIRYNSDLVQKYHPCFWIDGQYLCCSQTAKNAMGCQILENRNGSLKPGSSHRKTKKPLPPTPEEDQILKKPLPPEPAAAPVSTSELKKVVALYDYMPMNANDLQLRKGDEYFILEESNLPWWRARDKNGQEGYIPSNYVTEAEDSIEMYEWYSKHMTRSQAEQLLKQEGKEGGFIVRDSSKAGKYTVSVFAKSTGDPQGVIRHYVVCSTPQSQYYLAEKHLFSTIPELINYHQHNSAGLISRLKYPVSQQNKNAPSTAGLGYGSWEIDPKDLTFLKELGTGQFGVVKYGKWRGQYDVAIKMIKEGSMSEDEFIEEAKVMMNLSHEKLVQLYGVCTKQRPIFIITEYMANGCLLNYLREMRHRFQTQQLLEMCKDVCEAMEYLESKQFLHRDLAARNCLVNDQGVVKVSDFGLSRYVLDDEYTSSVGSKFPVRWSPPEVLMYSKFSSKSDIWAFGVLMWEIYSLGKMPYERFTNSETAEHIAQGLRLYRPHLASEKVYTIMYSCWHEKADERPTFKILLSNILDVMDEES

BTK degradation (%) 1 nM [%]	BTK degradation (%) 10 nM [%]	BTK degradation (%) 100 nM [%]	Compound
28.0	77.0	98.5	Cc1cc(-c2ccnc(Nc3ccc(N4CCC(CN5CCC(c6ccc(OC7CCC(=O)NC7=O)cc6)CC5)CC4)nc3)n2)ccc1CNC(=O)N1CC(OC(C)C)C1 (stereo not drawn) [Example 144, N-(4-(2-((6-(4-((4-(4-((2,6-dioxopiperidin-3-yl)oxy)phenyl)piperidin-1-yl)methyl)piperidin-1-yl)pyridin-3-yl)amino)pyrimidin-4-yl)-2-methylbenzyl)-3-isopropoxyazetidine-1-carboxamide]
27.5	85.0	99.0	Cc1cc(-c2ccnc(Nc3ccc(N4CCC(CN5CCC(c6ccc(NC7CCC(=O)NC7=O)cc6)CC5)CC4)nc3)n2)ccc1CNC(=O)N1CC(OC(C)C)C1 (stereo not drawn) [Example 145, N-(4-(2-((6-(4-((4-(4-((2,6-dioxopiperidin-3-yl)amino)phenyl)piperidin-1-yl)methyl)piperidin-1-yl)pyridin-3-yl)amino)pyrimidin-4-yl)-2-methylbenzyl)-3-isopropoxyazetidine-1-carboxamide]
26.5	88.0	99.0	Cc1cc(-c2ccnc(Nc3ccc(N4CCC(CN5CCC(c6ccc(NC7CCC(=O)NC7=O)cc6)CC5)CC4)nc3)n2)ccc1CNC(=O)c1cn(C(C)(C)C)nn1 (stereo not drawn) [Example 146, 1-(tert-butyl)-N-(4-(2-((6-(4-((4-(4-((2,6-dioxopiperidin-3-yl)amino)phenyl)piperidin-1-yl)methyl)piperidin-1-yl)pyridin-3-yl)amino)pyrimidin-4-yl)-2-methylbenzyl)-1H-1,2,3-triazole-4-carboxamide]

Source: patent US20250041429A1, “COMPOUND HAVING BTK PROTEIN DEGRADATION ACTIVITY, AND MEDICAL USES THEREOF” (UBIX THERAPEUTICS, INC., priority 2021, published 2025)
